Assay results as given in the supplement of paper PMC9663587.

Compound: T1, CN(C)C/C=C/C(=O)Nc1ccc(C(=O)Nc2cccc(Nc3ncc(Cl)c(-c4c[nH]c5ccccc45)n3)c2)cc1 [THZ1]
Experiment: GR value, 72 h; higher = faster growth (1 = untreated, <0 = killing);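 further: breast cancer and non-malignant breast epithelial lines, nine half-log doses, viable cells counted by Hoechst and LIVE/DEAD dye imaging versus time-zero plates and DMSO controls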
Details: 0.0001 µM

| Cell Line | GR value |
| --- | --- |
| PDXHCI002 | 1.05 GR |
| SKBR3 | 1.08 GR |
| SUM44PE | 1.02 GR |
| SUM52PE | 1.03 GR |
| SUM149 | 0.968 GR |

Same assay, conditions: 0.0003162 µM

| Cell Line | GR value |
| --- | --- |
| PDXHCI002 | 1.01 GR |
| SKBR3 | 1.06 GR |
| SUM44PE | 0.977 GR |
| SUM52PE | 1.01 GR |
| SUM149 | 0.963 GR |

Same assay, conditions: 0.001 µM

| Cell Line | GR value |
| --- | --- |
| PDXHCI002 | 1.02 GR |
| SKBR3 | 0.867 GR |
| SUM44PE | 0.784 GR |
| SUM52PE | 1.04 GR |
| SUM149 | 1.04 GR |

Same assay, conditions: 0.003162 µM

| Cell Line | GR value |
| --- | --- |
| PDXHCI002 | 0.984 GR |
| SKBR3 | 0.854 GR |
| SUM44PE | 0.888 GR |
| SUM52PE | 0.8 GR |
| SUM149 | 0.927 GR |

Same assay, conditions: 0.01 µM

| Cell Line | GR value |
| --- | --- |
| PDXHCI002 | 0.541 GR |
| SKBR3 | 0.743 GR |
| SUM44PE | -0.229 GR |
| SUM52PE | 0.733 GR |
| SUM149 | 0.923 GR |

Same assay, conditions: 0.03162 µM

| Cell Line | GR value |
| --- | --- |
| PDXHCI002 | -0.0195 GR |
| SKBR3 | 0.0057 GR |
| SUM52PE | 0.0891 GR |
| SUM149 | 0.704 GR |

Same assay, conditions: 0.1 µM

| Cell Line | GR value |
| --- | --- |
| PDXHCI002 | -0.163 GR |
| SKBR3 | -0.515 GR |
| SUM52PE | -0.0885 GR |
| SUM149 | 0.165 GR |

Same assay, conditions: 0.3162 µM

| Cell Line | GR value |
| --- | --- |
| PDXHCI002 | -0.148 GR |
| SKBR3 | -0.579 GR |
| SUM52PE | -0.151 GR |
| SUM149 | -0.351 GR |

Same assay, conditions: 1 µM

| Cell Line | GR value |
| --- | --- |
| PDXHCI002 | -0.193 GR |
| SKBR3 | -0.789 GR |
| SUM44PE | -0.0313 GR |
| SUM52PE | -0.403 GR |
| SUM149 | -0.506 GR |

Compound: CCOc1cc2ncc(C#N)c(Nc3ccc(OCc4ccccn4)c(Cl)c3)c2cc1NC(=O)/C=C/CN(C)C [Neratinib/HKI272]
Experiment: as above
Details: 0.0003162 µM

| Cell Line | GR value |
| --- | --- |
| PDXHCI002 | 1.05 GR |
| SKBR3 | 0.841 GR |
| SUM44PE | 0.966 GR |
| SUM52PE | 1.01 GR |
| SUM149 | 1.04 GR |

Same assay, conditions: 0.001 µM

| Cell Line | GR value |
| --- | --- |
| PDXHCI002 | 1 GR |
| SKBR3 | 0.631 GR |
| SUM44PE | 0.921 GR |
| SUM52PE | 0.991 GR |
| SUM149 | 1.01 GR |

Same assay, conditions: 0.003162 µM

| Cell Line | GR value |
| --- | --- |
| PDXHCI002 | 1.02 GR |
| SKBR3 | 0.264 GR |
| SUM44PE | 0.764 GR |
| SUM52PE | 1.01 GR |
| SUM149 | 1.02 GR |

Same assay, conditions: 0.01 µM

| Cell Line | GR value |
| --- | --- |
| PDXHCI002 | 0.829 GR |
| SKBR3 | 0.0804 GR |
| SUM44PE | 0.465 GR |
| SUM52PE | 1.06 GR |
| SUM149 | 0.895 GR |

Same assay, conditions: 0.03162 µM

| Cell Line | GR value |
| --- | --- |
| PDXHCI002 | 0.637 GR |
| SKBR3 | 0.0019 GR |
| SUM44PE | 0.417 GR |
| SUM52PE | 1.01 GR |
| SUM149 | 0.663 GR |

Same assay, conditions: 0.1 µM

| Cell Line | GR value |
| --- | --- |
| PDXHCI002 | 0.54 GR |
| SKBR3 | -0.0509 GR |
| SUM44PE | 0.312 GR |
| SUM52PE | 1.01 GR |
| SUM149 | 0.408 GR |

Same assay, conditions: 0.3162 µM

| Cell Line | GR value |
| --- | --- |
| PDXHCI002 | 0.378 GR |
| SKBR3 | -0.163 GR |
| SUM44PE | 0.209 GR |
| SUM52PE | 0.959 GR |
| SUM149 | 0.251 GR |

Same assay, conditions: 1 µM

| Cell Line | GR value |
| --- | --- |
| PDXHCI002 | 0.19 GR |
| SKBR3 | -0.252 GR |
| SUM44PE | 0.0292 GR |
| SUM52PE | 0.876 GR |
| SUM149 | 0.199 GR |

Same assay, conditions: 3.162 µM

| Cell Line | GR value |
| --- | --- |
| PDXHCI002 | -0.143 GR |
| SKBR3 | -0.246 GR |
| SUM44PE | -0.218 GR |
| SUM52PE | 0.503 GR |
| SUM149 | 0.144 GR |

Compound: T1, THZ1
Experiment: increase in dead-cell fraction, 72 h; higher = more death;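 further: breast cancer cell lines in 384-well plates, stained with Hoechst plus LIVE/DEAD far red dye and imaged, cells above an LDR intensity threshold counted dead, Hoechst-negative corpses included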
Details: 0.0001 µM

| Cell Line | increase in dead-cell fraction |
| --- | --- |
| PDXHCI002 | -0.0106 |
| SKBR3 | -0.0092 |
| SUM44PE | 0.0181 |
| SUM52PE | 0.0004 |
| SUM149 | -0.0005 |

Same assay, conditions: 0.0003162 µM

| Cell Line | increase in dead-cell fraction |
| --- | --- |
| PDXHCI002 | -0.015 |
| SKBR3 | 0.0042 |
| SUM44PE | -0.0186 |
| SUM52PE | 0.0008 |
| SUM149 | -0.0052 |

Same assay, conditions: 0.001 µM

| Cell Line | increase in dead-cell fraction |
| --- | --- |
| PDXHCI002 | -0.01 |
| SKBR3 | 0.0058 |
| SUM44PE | 0.0262 |
| SUM52PE | 0.0052 |
| SUM149 | -0.0029 |

Same assay, conditions: 0.003162 µM

| Cell Line | increase in dead-cell fraction |
| --- | --- |
| PDXHCI002 | -0.0152 |
| SKBR3 | -0.0046 |
| SUM44PE | -0.0493 |
| SUM52PE | 0.0023 |
| SUM149 | 0.0113 |

Same assay, conditions: 0.01 µM

| Cell Line | increase in dead-cell fraction |
| --- | --- |
| PDXHCI002 | 0.0629 |
| SKBR3 | -0.0004 |
| SUM44PE | 0.0625 |
| SUM52PE | 0.002 |
| SUM149 | -0.0015 |

Same assay, conditions: 0.03162 µM

| Cell Line | increase in dead-cell fraction |
| --- | --- |
| PDXHCI002 | 0.221 |
| SKBR3 | 0.0505 |
| SUM52PE | 0.061 |
| SUM149 | 0.0274 |

Same assay, conditions: 0.1 µM

| Cell Line | increase in dead-cell fraction |
| --- | --- |
| PDXHCI002 | 0.272 |
| SKBR3 | 0.237 |
| SUM52PE | 0.093 |
| SUM149 | 0.083 |

Same assay, conditions: 0.3162 µM

| Cell Line | increase in dead-cell fraction |
| --- | --- |
| PDXHCI002 | 0.269 |
| SKBR3 | 0.33 |
| SUM52PE | 0.137 |
| SUM149 | 0.445 |

Same assay, conditions: 1 µM

| Cell Line | increase in dead-cell fraction |
| --- | --- |
| PDXHCI002 | 0.282 |
| SKBR3 | 0.491 |
| SUM44PE | 0.0767 |
| SUM52PE | 0.513 |
| SUM149 | 0.589 |

Compound: CN(C)C(=O)c1cc2cnc(Nc3ccc(N4CCNCC4)cn3)nc2n1C1CCCC1 [LEE011/Ribociclib]
Experiment: as above
Details: 0.001 µM

| Cell Line | increase in dead-cell fraction |
| --- | --- |
| PDXHCI002 | -0.0323 |
| SKBR3 | -0.0002 |
